Reference: PubChem BioAssay (NCI)
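How tested: cells in 96-well plates exposed to compound for 48 hours at five concentrations. GI50 is the concentration that inhibits growth by half. At the TGI there is no net growth.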

Assays:
Assay in all cases: growth of human tumour cells (NCI), 48 h
[1] = test system: HT29 colon
[2] = test system: T-47D breast
[3] = test system: HS 578T breast
[4] = test system: A498 renal
[5] = test system: A549 NSCLC
[6] = test system: 786-0 renal
[7] = test system: KM12 colon
[8] = test system: NCI-H23 lung
[9] = test system: SW-620 colon
[10] = test system: SNB-75 CNS
[11] = test system: CCRF-CEM leukemia
[12] = test system: SNB-19 CNS
[13] = test system: OVCAR-3 ovarian
[14] = test system: MCF7 breast
[15] = test system: MDA-MB-231 breast
[16] = test system: EKVX NSCLC
[17] = test system: NCI-H522 lung
[18] = test system: SK-OV-3 ovarian
[19] = test system: HOP-62 NSCLC
[20] = test system: HL-60(TB) leukemia
[21] = test system: SK-MEL-5 melanoma
[22] = test system: OVCAR-4 ovarian
[23] = test system: MDA-MB-435
[24] = test system: BT-549 breast
[25] = test system: OVCAR-5 ovarian
[26] = test system: SK-MEL-28 melanoma
[27] = test system: SK-MEL-2 melanoma
[28] = test system: SF-268 CNS
[29] = test system: HCC-2998 colon
[30] = test system: SR leukemia
[31] = test system: IGROV1 ovarian
[32] = test system: SN12C renal
[33] = test system: HOP-92 NSCLC
[34] = test system: NCI-H226 lung
[35] = test system: UACC-257 melanoma
[36] = test system: COLO 205 colon
[37] = test system: UO-31 renal
[38] = test system: TK-10 renal
[39] = test system: HCT-15 colon
[40] = test system: RPMI-8226 leukemia
[41] = test system: CAKI-1 renal
[42] = test system: PC-3 prostate
[43] = test system: UACC-62 melanoma
[44] = test system: K-562 leukemia
[45] = test system: NCI-H460 lung
[46] = test system: MALME-3M melanoma
[47] = test system: SF-539 CNS
[48] = test system: HCT-116 colon
[49] = test system: RXF 393 renal
[50] = test system: DU-145 prostate
[51] = test system: M14 melanoma
[52] = test system: OVCAR-8 ovarian
[53] = test system: MOLT-4 leukemia
[54] = test system: LOX IMVI melanoma
[55] = test system: ACHN renal
[56] = test system: U251 CNS
[57] = test system: SF-295 CNS
[58] = test system: NCI/ADR-RES ovarian
[59] = test system: MDA-N

With `CC[C@@]1(O)C(=O)OCc2c1cc1n(c2=O)Cc2c-1nc1ccccc1c2/C=N/OC(C)(C)C` the GI50 [1] was 0.0187 µM, the TGI [1] was 0.66 µM and the GI50 [2] was < 0.01 µM. The TGI [2] was 15.1 µM, the GI50 [3] was 1.13 µM and the TGI [3] was > 85.5 µM. For the same compound, the GI50 [4] was < 0.0169 µM, the TGI [4] was 0.169 µM and the GI50 [5] was < 0.01 µM. The TGI [5] was 1.52 µM, the GI50 [6] was < 0.01 µM and the TGI [6] was 11.2 µM. The GI50 [7] was 0.0441 µM, the TGI [7] was 4.84 µM and the GI50 [8] was < 0.01 µM. The TGI [8] was 0.158 µM, the GI50 [9] was < 0.011 µM and the TGI [9] was 14.2 µM. The GI50 [10] was < 0.0109 µM, the TGI [10] was 0.978 µM and the GI50 [11] was < 0.01 µM. The TGI [11] was > 100 µM, the GI50 [12] was < 0.01 µM and the TGI [12] was 10.9 µM. For the same compound, the GI50 [13] was 0.0804 µM, the TGI [13] was 1.78 µM and the GI50 [14] was < 0.01 µM. For the same compound, the TGI [14] was 5.69 µM, the GI50 [15] was 0.552 µM and the TGI [15] was 18.1 µM. For the same compound, the GI50 [16] was 0.073 µM, the TGI [16] was 23.8 µM and the GI50 [17] was < 0.0124 µM. The TGI [17] was 0.0812 µM, the GI50 [18] was < 0.01 µM and the TGI [18] was 1.34 µM. The GI50 [19] was < 0.01 µM, the TGI [19] was 0.53 µM and the GI50 [20] was < 0.01 µM. The TGI [20] was < 0.0125 µM, the GI50 [21] was < 0.01 µM and the TGI [21] was 0.102 µM. For the same compound, the GI50 [22] was 0.311 µM, the TGI [22] was 13.9 µM and the GI50 [23] was 0.0301 µM. For the same compound, the TGI [23] was 3.92 µM, the GI50 [24] was < 0.0139 µM and the TGI [24] was 2.02 µM. The GI50 [25] was 0.113 µM, the TGI [25] was 5.47 µM and the GI50 [26] was 0.372 µM. It also gave a TGI [26] of 9.07 µM, a GI50 [27] of 0.0447 µM and a TGI [27] of 1.22 µM. For the same compound, the GI50 [28] was < 0.01 µM, the TGI [28] was 2.8 µM and the GI50 [29] was 0.183 µM. For the same compound, the TGI [29] was 14.1 µM, the GI50 [30] was < 0.01 µM and the TGI [30] was 0.108 µM. For the same compound, the GI50 [31] was 0.0391 µM, the TGI [31] was 5.26 µM and the GI50 [32] was < 0.01 µM. The TGI [32] was 4.75 µM, the GI50 [33] was < 0.0149 µM and the TGI [33] was 3.4 µM. The GI50 [34] was < 0.01 µM, the TGI [34] was 0.0355 µM and the GI50 [35] was 0.0666 µM. For the same compound, the TGI [35] was 1.32 µM, the GI50 [36] was 0.0483 µM and the TGI [36] was 2.05 µM. The GI50 [37] was < 0.01 µM, the TGI [37] was 0.122 µM and the GI50 [38] was 0.0787 µM. It also gave a TGI [38] of 3.52 µM, a GI50 [39] of 0.082 µM and a TGI [39] of 25.7 µM. For the same compound, the GI50 [40] was 0.0116 µM, the TGI [40] was 0.551 µM and the GI50 [41] was < 0.01 µM. It also gave a TGI [41] of 0.149 µM, a GI50 [42] of 0.0769 µM and a TGI [42] of 27.2 µM. For the same compound, the GI50 [43] was < 0.01 µM, the TGI [43] was 0.118 µM and the GI50 [44] was 0.0189 µM. For the same compound, the TGI [44] was > 100 µM, the GI50 [45] was < 0.01 µM and the TGI [45] was 1.95 µM. For the same compound, the GI50 [46] was 0.032 µM, the TGI [46] was 1.58 µM and the GI50 [47] was < 0.01 µM. For the same compound, the TGI [47] was < 0.0216 µM, the GI50 [48] was < 0.01 µM and the TGI [48] was 13.4 µM. For the same compound, the GI50 [49] was < 0.01 µM, the TGI [49] was 0.0639 µM and the GI50 [50] was < 0.01 µM. For the same compound, the TGI [50] was 13.5 µM, the GI50 [51] was < 0.01 µM and the TGI [51] was 0.226 µM. The GI50 [52] was < 0.0118 µM, the TGI [52] was > 42.1 µM and the GI50 [53] was < 0.01 µM. The TGI [53] was 0.742 µM, the GI50 [54] was < 0.01 µM and the TGI [54] was 0.133 µM. The GI50 [55] was < 0.01 µM, the TGI [55] was 0.127 µM and the GI50 [56] was < 0.01 µM. The TGI [56] was 0.812 µM, the GI50 [57] was < 0.01 µM and the TGI [57] was 0.599 µM. For the same compound, the GI50 [58] was < 0.01 µM and the TGI [58] was 0.395 µM.

In the case of `CC[C@@]1(O)C(=O)OCc2c1cc1n(c2=O)Cc2c-1nc1ccccc1c2/C=N\NC(=O)C(C)N` (some centres undefined), the TGI [1] is reported as > 47.1 µM, the TGI [3] is reported as > 100 µM and the TGI [4] is reported as 1.03 µM. For the same compound, the TGI [5] was > 26.5 µM, the TGI [6] was 2 µM and the TGI [7] was > 100 µM. For the same compound, the TGI [8] was 0.847 µM, the TGI [9] was > 100 µM and the TGI [10] was 4.33 µM. The TGI [12] was 58.7 µM, the TGI [13] was > 100 µM and the TGI [14] was > 66.9 µM. For the same compound, the TGI [15] was > 100 µM, the TGI [16] was > 100 µM and the TGI [17] was 25.8 µM. For the same compound, the TGI [19] was 16 µM, the TGI [20] was > 100 µM and the TGI [21] was 1.78 µM. For the same compound, the TGI [22] was > 100 µM, the TGI [23] was > 100 µM and the TGI [24] was > 22.4 µM. The TGI [25] was > 100 µM, the TGI [26] was > 100 µM and the TGI [27] was > 100 µM. The TGI [28] was > 100 µM, the TGI [29] was > 21.1 µM and the TGI [30] was 0.119 µM. For the same compound, the TGI [31] was > 100 µM, the TGI [32] was 11.1 µM and the TGI [33] was 7.7 µM. The TGI [59] was > 100 µM, the TGI [34] was 2.43 µM and the TGI [35] was 28.7 µM. For the same compound, the TGI [36] was > 31.6 µM, the TGI [37] was 2.12 µM and the TGI [38] was > 100 µM. The TGI [39] was > 100 µM, the TGI [41] was 2.57 µM and the TGI [42] was > 100 µM. The TGI [43] was 0.305 µM, the TGI [45] was 4.47 µM and the TGI [46] was > 91.9 µM. The TGI [47] was < 0.0282 µM, the TGI [48] was 23.6 µM and the TGI [49] was 9.18 µM. For the same compound, the TGI [50] was 0.398 µM, the TGI [51] was 5.05 µM and the TGI [52] was 5.26 µM. It also gave a TGI [53] of 2.08 µM, a TGI [54] of 0.229 µM and a TGI [56] of 31.6 µM. It also gave a TGI [57] of 8.14 µM and a TGI [58] of 4.26 µM.
